According to patent US8410153B2, “Naphthalene isoxazoline invertebrate pest control agents” (E.I. du Pont de Nemours and Company, priority 2007, dated 2013):

How the values were obtained:
Assay type in all cases: in vivo
[1] = test system: fall armyworm (Spodoptera frugiperda); test: Test B: control of fall armyworm on corn (maize) plant, foliar spray; details: sprayed at 50 ppm
Procedure, shortened: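 4-5-day-old corn plants pre-infested with 10-15 1-day-old larvae on insect diet, then sprayed with compound at 50 ppm in 10% acetone/90% water with 300 ppm surfactant, three replicates. Held 6 days at 25° C, 70% RH; feeding damage assessed visually and mortality rated.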

[2] = test system: western flower thrips (Frankliniella occidentalis); test: Test E: control of western flower thrips on Soleil bean plant, contact and/or systemic; details: held 6 days
Procedure, shortened: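 5–7-day-old Soleil bean plants were sprayed at 250 or 50 ppm in 10% acetone/90% water with 300 ppm X-77 surfactant, three replicates. After drying 1 h, 22–27 adult thrips were added per unit. Mortality and plant damage were rated after 6 days at 25 °C and 45–55% RH.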

[3] = test system: diamondback moth (Plutella xylostella); test: Test A: control of diamondback moth on radish plant, foliar spray; details: sprayed at 50 ppm, held 6 days
Procedure, shortened: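 Radish plants 12–14 days old, pre-infested with about 50 neonate larvae, sprayed at 50 ppm in 10% acetone/water with 300 ppm X-77 surfactant; three replicates. After 6 days at 25° C and 70% RH, feeding damage was scored visually and mortality counted.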

Measured: levels of control efficacy (20% or less feeding damage or 80% or more mortality)

CNC(=O)C(C)NC(=O)c1ccc(C2=NOC(c3cc(C(F)(F)F)cc(C(F)(F)F)c3)(C(F)(F)F)C2)c2ccccc12 (stereo not drawn) [Compound 86]
very good to excellent: [1] | [2]; sprayed at 50 ppm | [2]; sprayed at 250 ppm | [3]

CS(=O)(=O)CCNC(=O)c1ccc(C2=NOC(c3cc(C(F)(F)F)cc(C(F)(F)F)c3)(C(F)(F)F)C2)c2ccccc12 (racemic) [Compound 49]
very good to excellent: [1] | [2]; sprayed at 50 ppm | [2]; sprayed at 250 ppm | [3]

CCNC(=O)CNC(=O)c1ccc(C2=NOC(c3cc(C(F)(F)F)cc(C(F)(F)F)c3)(C(F)(F)F)C2)c2ccccc12 (stereo not drawn) [Compound 100]
very good to excellent: [1] | [2]; sprayed at 50 ppm | [3]

CCNC(=O)CNC(=O)c1ccc(C2=NOC(c3cc(Cl)cc(C(F)(F)F)c3)(C(F)(F)F)C2)c2ccccc12 (stereo not drawn) [Compound 119]
very good to excellent: [1] | [2]; sprayed at 50 ppm | [2]; sprayed at 250 ppm | [3]

CC(NC(=O)c1ccc(C2=NOC(c3cc(F)cc(C(F)(F)F)c3)(C(F)(F)F)C2)c2ccccc12)C(=O)NCC(F)(F)F (mixture of isomers) [Compound 139]
very good to excellent: [1] | [2]; sprayed at 50 ppm | [3]

CSCCNC(=O)c1ccc(C2=NOC(c3cc(Cl)c(Cl)c(Cl)c3)(C(F)(F)F)C2)c2ccccc12 (stereo not drawn) [Compound 15]
very good to excellent: [1] | [2]; sprayed at 50 ppm | [2]; sprayed at 250 ppm | [3]

C[S+]([O-])CCNC(=O)c1ccc(C2=NOC(c3cc(C(F)(F)F)cc(C(F)(F)F)c3)(C(F)(F)F)C2)c2ccccc12 (stereo not drawn) [Compound 79]
very good to excellent: [1] | [2]; sprayed at 50 ppm | [2]; sprayed at 250 ppm | [3]

CSCC(C)NC(=O)c1ccc(C2=NOC(c3cc(Cl)cc(Cl)c3)(C(F)(F)F)C2)c2ccccc12 (stereo not drawn) [Compound 30]
very good to excellent: [1] | [2]; sprayed at 250 ppm | [3]

CC(O)CNC(=O)c1ccc(C2=NOC(c3cc(C(F)(F)F)cc(C(F)(F)F)c3)(C(F)(F)F)C2)c2ccccc12 (stereo not drawn) [Compound 67]
very good to excellent: [1] | [2]; sprayed at 50 ppm | [2]; sprayed at 250 ppm | [3]

CC(C)(C)CNC(=O)CNC(=O)c1ccc(C2=NOC(c3cc(C(F)(F)F)cc(C(F)(F)F)c3)(C(F)(F)F)C2)c2ccccc12 (stereo not drawn) [Compound 103]
very good to excellent: [1] | [2]; sprayed at 50 ppm | [3]

CC(NC(=O)c1ccc(C2=NOC(c3cc(Br)cc(C(F)(F)F)c3)(C(F)(F)F)C2)c2ccccc12)C(=O)NCC(F)(F)F (mixture of isomers) [Compound 140]
very good to excellent: [1] | [2]; sprayed at 50 ppm | [3]

CC(C)NC(=O)CNC(=O)c1ccc(C2=NOC(c3cc(Cl)cc(Cl)c3)(C(F)(F)F)C2)c2ccccc12 (stereo not drawn) [Compound 5]
very good to excellent: [1] | [2]; sprayed at 50 ppm | [2]; sprayed at 250 ppm | [3]

CC(C)NC(=O)CNC(=O)c1ccc(C2=NOC(c3cccc(C(F)(F)F)c3)(C(F)(F)F)C2)c2ccccc12 (racemic) [Compound 38]
very good to excellent: [1] | [2]; sprayed at 50 ppm | [2]; sprayed at 250 ppm | [3]

CC(NC(=O)c1ccc(C2=NOC(c3cc(Cl)cc(Cl)c3)(C(F)(F)F)C2)c2ccccc12)C(=O)NC(C)C(F)(F)F (mixture of isomers) [Compound 123]
very good to excellent: [1] | [2]; sprayed at 50 ppm | [2]; sprayed at 250 ppm | [3]

CC(CO)NC(=O)c1ccc(C2=NOC(c3cccc(C(F)(F)F)c3)(C(F)(F)F)C2)c2ccccc12 (mixture of isomers) [Compound 41]
very good to excellent: [1] | [2]; sprayed at 50 ppm | [2]; sprayed at 250 ppm | [3]

CSCC(C)NC(=O)c1ccc(C2=NOC(c3cc(C(F)(F)F)cc(C(F)(F)F)c3)(C(F)(F)F)C2)c2ccccc12 (mixture of isomers) [Compound 60]
very good to excellent: [1] | [2]; sprayed at 250 ppm | [3]

CCN(C)C(=O)CNC(=O)c1ccc(C2=NOC(c3cc(Cl)cc(Cl)c3)(C(F)(F)F)C2)c2ccccc12 (stereo not drawn) [Compound 7]
very good to excellent: [1] | [2]; sprayed at 50 ppm | [2]; sprayed at 250 ppm | [3]

CC(C)CNC(=O)CNC(=O)c1ccc(C2=NOC(c3cc(Cl)cc(C(F)(F)F)c3)(C(F)(F)F)C2)c2ccccc12 (stereo not drawn) [Compound 118]
very good to excellent: [1] | [2]; sprayed at 250 ppm | [3]

CCNC(=O)C(C)NC(=O)c1ccc(C2=NOC(c3cc(Br)cc(C(F)(F)F)c3)(C(F)(F)F)C2)c2ccccc12 (mixture of isomers) [Compound 142]
very good to excellent: [1] | [2]; sprayed at 50 ppm | [3]

CSCCNC(=O)c1ccc(C2=NOC(c3cc(Br)cc(C(F)(F)F)c3)(C(F)(F)F)C2)c2ccccc12 (racemic) [Compound 50]
very good to excellent: [1] | [2]; sprayed at 50 ppm | [2]; sprayed at 250 ppm | [3]

CS(=O)(=O)CCNC(=O)c1ccc(C2=NOC(c3cccc(C(F)(F)F)c3)(C(F)(F)F)C2)c2ccccc12 (racemic) [Compound 39]
very good to excellent: [1] | [2]; sprayed at 50 ppm | [2]; sprayed at 250 ppm | [3]

O=C(CNC(=O)c1ccc(C2=NOC(c3cc(Cl)cc(Cl)c3)(C(F)(F)F)C2)c2ccccc12)NCC(F)(F)F (stereo not drawn) [Compound 1]
very good to excellent: [1] | [2]; sprayed at 50 ppm | [2]; sprayed at 250 ppm | [3]

CS(=O)(=O)CCNC(=O)c1ccc(C2=NOC(c3cc(Cl)cc(C(F)(F)F)c3)(C(F)(F)F)C2)c2ccccc12 (stereo not drawn) [Compound 66]
very good to excellent: [1] | [2]; sprayed at 50 ppm | [2]; sprayed at 250 ppm | [3]
